According to patent US8846933B2, “N-link hydroxamic acid derivatives useful as antibacterial agents” (Pfizer Inc., priority 2009, dated 2014):

Assays:
[1] = system: Pseudomonas aeruginosa UI-18: Wild-type (PA-7); test: MIC determination (CLSI), strain PA-7; assay type: cell-based; conditions: strain PA-7, unit assumed
Outline: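 Strain tested was P. aeruginosa UI-18, a wild-type isolate labelled PA-7. Minimum inhibitory concentrations followed CLSI dilution methodology for aerobically growing bacteria (M7-A7, M100-S18).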

[2] = system: Escherichia coli EC-1: VOGEL, mouse virulent; test: MIC determination (CLSI), strain EC-1; assay type: cell-based; conditions: strain EC-1, unit assumed
Outline: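 The mouse-virulent VOGEL isolate of E. coli, EC-1, served as test organism. Minimum inhibitory concentration was measured by CLSI dilution methodology (M7-A7; M100-S18 standards).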

[3] = generated in the same manner as in Table 4

| SMILES | PA-7 (MIC) [1] | EC-1 (MIC) [2] | PA-7 (MIC) [1, 3] | EC-1 (MIC) [2, 3] |
| --- | --- | --- | --- | --- |
| COc1cc(-c2ccn(CCC(C)(C(=O)NO)S(C)(=O)=O)c(=O)c2)ccc1OCCCN1CCOCC1 (stereo not drawn) [Example 227, N-hydroxy-4-{4-[3-methoxy-4-(3-morpholin-4-ylpropoxy)phenyl]-2-oxopyridin-1(2H)-yl}-2-methyl-2-(methylsulfonyl)butanamide] | 64 µg/mL | 64 µg/mL |  |  |
| Cc1c(-c2cccc(Cl)c2F)ccn(CC[C@](C)(C(=O)NO)S(C)(=O)=O)c1=O [Example 413, (2R)-4-[4-(3-chloro-2-fluorophenyl)-3-methyl-2-oxopyridin-1(2H)-yl]-N-hydroxy-2-methyl-2-(methylsulfonyl)butanamide] | 2 µg/mL | 2 µg/mL |  |  |
| COC(=O)CCc1ccc(-c2ccn(CC[C@](C)(C(=O)NO)S(C)(=O)=O)c(=O)c2)cc1 [Example 478] | 1 µg/mL | 2 µg/mL |  |  |
| COc1ccc(-c2ccn(CC[C@](C)(C(=O)NO)S(C)(=O)=O)c(=O)c2)cc1F [Example 317, (2R)-4-[4-(3-fluoro-4-methoxyphenyl)-2-oxopyridin-1(2H)-yl]-N-hydroxy-2-methyl-2-(methylsulfonyl)butanamide] | 1 µg/mL | 2 µg/mL |  |  |
| CN(C)S(=O)(=O)c1ccc(-c2ccn(CCC(C)(C(=O)NO)S(C)(=O)=O)c(=O)c2)cc1 (stereo not drawn) [Example 106, 4-[4-{4-[(dimethylamino)sulfonyl]phenyl}-2-oxopyridin-1(2H)-yl]-N-hydroxy-2-methyl-2-(methylsulfonyl)butanamide] |  |  | 64 µg/mL | > 64 µg/mL |
| CC(CCn1ccc(-c2ccc3cc(CO)ccc3c2)cc1=O)(C(=O)NO)S(C)(=O)=O (stereo not drawn) [Example 309, N-hydroxy-4-{4-[6-(hydroxymethyl)-2-naphthyl]-2-oxopyridin-1(2H)-yl}-2-methyl-2-(methylsulfonyl)butanamide] | 4 µg/mL | 1 µg/mL |  |  |
| CN1Cc2ccc(-c3ccn(CCC(C)(C(=O)NO)S(C)(=O)=O)c(=O)c3)cc2C1=O (stereo not drawn) [Example 162, N-hydroxy-2-methyl-4-[4-(2-methyl-3-oxo-2,3-dihydro-1H-isoindol-5-yl)-2-oxopyridin-1(2H)-yl]-2-(methylsulfonyl)butanamide] |  |  | > 64 µg/mL | > 64 µg/mL |
| COc1ccc(Oc2ccc(-c3ccn(CCC(C)(C(=O)NO)S(C)(=O)=O)c(=O)c3)cc2)cc1 (stereo not drawn) [Example 139, N-hydroxy-4-{4-[4-(4-methoxyphenoxy)phenyl]-2-oxopyridin-1(2H)-yl}-2-methyl-2-(methylsulfonyl)butanamide] |  |  | 8 µg/mL | 0.125 µg/mL |
| CC(CCn1ccc(-c2ccccc2O)cc1=O)(C(=O)NO)S(C)(=O)=O (stereo not drawn) [Example 213, N-hydroxy-4-[4-(2-hydroxyphenyl)-2-oxopyridin-1(2H)-yl]-2-methyl-2-(methylsulfonyl)butanamide] | > 64 µg/mL | > 64 µg/mL |  |  |
| COc1cccc(-c2ccn(CC[C@](C)(C(=O)NO)S(C)(=O)=O)c(=O)c2)c1C [Example 468] | 2 µg/mL | 2 µg/mL |  |  |
| COc1ccnc2ccc(-c3ccn(CC[C@](C)(C(=O)NO)S(C)(=O)=O)c(=O)c3)cc12 [Example 482] | > 64 µg/mL | > 64 µg/mL |  |  |
| CCCCCc1ccc(-c2ccn(CCC(C)(C(=O)NO)S(C)(=O)=O)c(=O)c2)cc1 (stereo not drawn) [Example 217, N-hydroxy-2-methyl-2-(methylsulfonyl)-4-[2-oxo-4-(4-pentylphenyl)pyridin-1(2H)-yl]butanamide] | 8 µg/mL | < 0.06 µg/mL |  |  |
| C[C@@](CCn1ccc(-c2ccc(Oc3ncccc3C#N)cc2)cc1=O)(C(=O)NO)S(C)(=O)=O [Example 427, (2R)-4-[4-{4-[(3-cyanopyridin-2-yl)oxy]phenyl}-2-oxopyridin-1(2H)-yl]-N-hydroxy-2-methyl-2-(methylsulfonyl)butanamide] | 2 µg/mL | 2 µg/mL |  |  |
| Cc1cc(C(N)=O)ccc1-c1ccn(CCC(C)(C(=O)NO)S(C)(=O)=O)c(=O)c1 (stereo not drawn) [Example 113, 4-{1-[4-(hydroxyamino)-3-methyl-3-(methylsulfonyl)-4-oxobutyl]-2-oxo-1,2-dihydropyridin-4-yl}-3-methylbenzamide] |  |  | > 64 µg/mL | > 64 µg/mL |
| CC(C)(O)Cc1cccc(-c2ccn(CCC(C)(C(=O)NO)S(C)(=O)=O)c(=O)c2)c1 (stereo not drawn) [Example 262, N-hydroxy-4-{4-[3-(2-hydroxy-2-methylpropyl)phenyl]-2-oxopyridin-1(2H)-yl}-2-methyl-2-(methylsulfonyl)butanamide] | > 64 µg/mL | 64 µg/mL |  |  |
| Cc1cc(-c2ccc(-c3ccn(CC[C@](C)(C(=O)NO)S(C)(=O)=O)c(=O)c3)cc2)no1 [Example 370, (2R)-N-hydroxy-2-methyl-4-{4-[4-(5-methylisoxazol-3-yl)phenyl]-2-oxopyridin-1(2H)-yl}-2-(methylsulfonyl)butanamide] | 0.5 µg/mL | 0.125 µg/mL |  |  |
| CCNC(=O)c1ccc(-c2ccn(CCC(C)(C(=O)NO)S(C)(=O)=O)c(=O)c2)cc1F (stereo not drawn) [Example 177, N-ethyl-2-fluoro-4-{1-[4-(hydroxyamino)-3-methyl-3-(methylsulfonyl)-4-oxobutyl]-2-oxo-1,2-dihydropyridin-4-yl}benzamide] |  |  | 64 µg/mL | > 64 µg/mL |

| SMILES | PA-7 (MIC) [1] | EC-1 (MIC) [2] | PA-7 (MIC) [1, 3] | EC-1 (MIC) [2, 3] |
| --- | --- | --- | --- | --- |
| Cc1cc(OCCCN2CCOCC2)ccc1-c1ccn(CCC(C)(C(=O)NO)S(C)(=O)=O)c(=O)c1 (stereo not drawn) [Example 228, N-hydroxy-2-methyl-4-{4-[2-methyl-4-(3-morpholin-4-ylpropoxy)phenyl]-2-oxopyridin-1(2H)-yl}-2-(methylsulfonyl)butanamide] | 16 µg/mL | 8 µg/mL |  |  |
| C[C@@](CCn1ccc(-c2ccc(OC(F)(F)F)cc2F)cc1=O)(C(=O)NO)S(C)(=O)=O [Example 354, (2R)-4-{4-[2-fluoro-4-(trifluoromethoxy)phenyl]-2-oxopyridin-1(2H)-yl}-N-hydroxy-2-methyl-2-(methylsulfonyl)butanamide] | 0.5 µg/mL | 0.25 µg/mL |  |  |
| C[C@@](CCn1ccc(-c2ccc3c(c2)C(=O)OCC3)cc1=O)(C(=O)NO)S(C)(=O)=O [Example 481] | 64 µg/mL | > 64 µg/mL |  |  |
| COc1ccc(-c2ccn(CC[C@](C)(C(=O)NO)S(C)(=O)=O)c(=O)c2)c(Cl)c1Cl [Example 452, (2R)-4-[4-(2,3-dichloro-4-methoxyphenyl)-2-oxopyridin-1(2H)-yl]-N-hydroxy-2-methyl-2-(methylsulfonyl)butanamide] | 2 µg/mL | 4 µg/mL |  |  |
| C[C@@](CCn1ccc(-c2cnc(-c3ccccc3)o2)cc1=O)(C(=O)NO)S(C)(=O)=O [Example 474] | 64 µg/mL | 64 µg/mL |  |  |
| CC(CCn1ccc(-c2cnn(Cc3ccccc3)c2)cc1=O)(C(=O)NO)S(C)(=O)=O (stereo not drawn) [Example 165, 4-[4-(1-benzyl-1H-pyrazol-4-yl)-2-oxopyridin-1(2H)-yl]-N-hydroxy-2-methyl-2-(methylsulfonyl)butanamide] |  |  | > 64 µg/mL | > 64 µg/mL |
| C[C@@](CCn1ccc(-c2ccc3cc(OCCO)ccc3c2)cc1=O)(C(=O)NO)S(C)(=O)=O [Example 314, (2R)-N-hydroxy-4-{4-[6-(2-hydroxyethoxy)-2-naphthyl]-2-oxopyridin-1(2H)-yl}-2-methyl-2-(methylsulfonyl)butanamide] | 1 µg/mL | 0.5 µg/mL |  |  |
| C[C@@](CCn1ccc(-c2ccc(-c3ncns3)cc2)cc1=O)(C(=O)NO)S(C)(=O)=O [Example 419, (2R)-N-hydroxy-2-methyl-2-(methylsulfonyl)-4-{2-oxo-4-[4-(1,2,4-thiadiazol-5-yl)phenyl]pyridin-1(2H)-yl}butanamide] | 1 µg/mL | 0.25 µg/mL |  |  |
| CC(CCn1ccc(-c2cccc(OCCCO)c2F)cc1=O)(C(=O)NO)S(C)(=O)=O (stereo not drawn) [Example 307, 4-{4-[2-fluoro-3-(3-hydroxypropoxy)phenyl]-2-oxopyridin-1(2H)-yl}-N-hydroxy-2-methyl-2-(methylsulfonyl)butanamide] | 16 µg/mL | 16 µg/mL |  |  |
| C[C@@](CCn1ccc(-c2cc(Cl)cc(Cl)c2)cc1=O)(C(=O)NO)S(C)(=O)=O [Example 336, (2R)-4-[4-(3,5-dichlorophenyl)-2-oxopyridin-1(2H)-yl]-N-hydroxy-2-methyl-2-(methylsulfonyl)butanamide] | 8 µg/mL | 4 µg/mL |  |  |
| CC(CCn1ccc(-c2ccc(OCCCc3ccncc3)cc2)cc1=O)(C(=O)NO)S(C)(=O)=O (stereo not drawn) [Example 89] |  |  | 2 µg/mL | 0.25 µg/mL |
| COc1ncccc1-c1ccn(CCC(C)(C(=O)NO)S(C)(=O)=O)c(=O)c1 (stereo not drawn) [Example 182, N-hydroxy-4-(2-methoxy-2′-oxo-3,4′-bipyridin-1′(2′H)-yl)-2-methyl-2-(methylsulfonyl)butanamide] |  |  | 64 µg/mL | > 64 µg/mL |
| CC(CCn1ccc(-c2ccc(F)cc2F)cc1=O)(C(=O)NO)S(C)(=O)=O (stereo not drawn) [Example 186, 4-[4-(2,4-difluorophenyl)-2-oxopyridin-1(2H)-yl]-N-hydroxy-2-methyl-2-(methylsulfonyl)butanamide] | 2 µg/mL | 2 µg/mL |  |  |
| COc1ccc(-c2ccn(CCC(C)(C(=O)NO)S(C)(=O)=O)c(=O)c2)c(C)n1 (stereo not drawn) [Example 200, N-hydroxy-4-(6-methoxy-2-methyl-2′-oxo-3,4′-bipyridin-1′(2′H)-yl)-2-methyl-2-(methylsulfonyl)butanamide] | 16 µg/mL | 32 µg/mL |  |  |
| C[C@@](CCn1ccc(-c2ccc(-c3cncnc3)cc2)cc1=O)(C(=O)NO)S(C)(=O)=O [Example 423] | 4 µg/mL | 1 µg/mL |  |  |
| CC(CCn1ccc(-c2ccc(C#N)s2)cc1=O)(C(=O)NO)S(C)(=O)=O (stereo not drawn) [Example 149, 4-[4-(5-cyano-2-thienyl)-2-oxopyridin-1(2H)-yl]-N-hydroxy-2-methyl-2-(methylsulfonyl)butanamide] |  |  | 16 µg/mL | 16 µg/mL |
